Measurements taken from US8426342B2, “Method for weed control in lawn” (priority 2008, dated 2013).

How the values were obtained:
Lamium amplexcaule = experiment: Effectivity testing against weed plants ex. 5.1, Abbott %; type: in vivo, Lamium amplexicaule
Excerpt: Each plot was divided by different pre-treatments 1 week before application of the trial treatments: • A) Pre-treatment with glyphosate-isopropylammonium allowing to evaluate in this section the pre-emergence effect against weeds. • B) No pre-treatment, present winter annual weeds are received a post-emergence application.
2005, applied on dormant turf in winter
Effectivity was rated in percent (%) herbicidal effect compared with untreated control according to the method of Abbott according to the formula [(X−Y)/X]100 where X is the absolute level/scoring of the control plants, Y is the level/scoring of the treated plants. 100% efficacy means full control; 0% efficacy means no control of the weed; all ratings above 80% are usually acceptable.

Digitaria sanguinalis = experiment: Effectivity testing against weed plants ex. 5.3, in bermuda grass turf, Abbott %; type: in vivo
Excerpt: (§1) A co-formulation containing a mixture compounds no. […] Granules were applied with a shaker can.
(§2) Location: Sports turf, North Carolina, USA
(§3) Plot size: 1.4 m^2 and 3 replicates per treatment
(§4) Application timing: 27 Mar. 2007, spring application, early post for the weed
(§5) Effectivity was rated in percent (%) herbicidal effect compared with untreated control according to the method of Abbott mentioned above (see 5.1). 100% efficacy means full control; 0% efficacy means no control of the weed; all ratings above 80% are usually acceptable.
(§6) The application and evaluation were performed as described in example 5.2 with the following difference:
(§7) Turf grass species: Cynodon dactylon, variety (bermuda grass)
(§8) Weed species: Digitaria sanguinalis, Poa annua

Poa annua = experiment: as above; type: in vivo; settings: 210 DAT
Excerpt: as §1, §2, §3, §4, §5, §6, §7, §8

Capsella bursa pastoris = experiment: Greenhouse herbicidal effect in weed control ex. 6.2, 2- to 3-leaves stage; type: in vivo; settings: 6 g a.i./ha
Excerpt: (§9) That means, when applying the combinations according to the invention, herbicidal effects are observed on a harmful plant species which exceed the formal total of the effects of the herbicides present when these are applied by themselves. Alternatively, it is observed in some cases that a lower application rate is required for the herbicide combination in order to achieve the same effect on a harmful plant species in comparison with the individual products.
(§10) When the data observed already exceed the formal total (=E^A) of the data in the experiments with individual applications, they likewise exceed the expected value according to Colby, which is calculated using the formula below and is likewise regarded as an indication of synergism (cf. S. R. Colby; in Weeds 15 (1967) pp. 20 to 22): E=A+B−(A·B/100)
(§11) In this formula: • A=action of active compound (A) in % at an application rate of a g of AS/ha; • B=action of active compound (B) in % at an application rate of b g of AS/ha; • E=expected value of the action of the combination (A)+(B) in % at the combined application rate a+b g of AS/ha.
(§12) The data observed in the experiments show, at suitably low dosages, an action of the combinations which exceeds the expected values according to Colby (=E^C).

Taraxacum officinalis = experiment: Greenhouse herbicidal effect in weed control ex. 6.2, 1- to 2-leaves stage; type: in vivo; settings: 6 g a.i./ha
Excerpt: as §9, §10, §11, §12

Cc1ccc2c(c1)[C@H](Nc1nc(N)nc([C@@H](C)F)n1)[C@@H](C)C2 (stereo in doubt) [(A21)/(A22), indaziflam]
Herbicidal effect (%) on Lamium amplexcaule, Post-emergence application without pre-treatment (Lamium amplexcaule; 25 g a.i./ha, 124 DAT): 91% | Herbicidal effect (%) on Lamium amplexcaule, Pre-emergence application after pre-treatment (Lamium amplexcaule; 25 g a.i./ha, 124 DAT): 58% | Herbicidal effect (%) on Lamium amplexcaule, Post-emergence application without pre-treatment (Lamium amplexcaule; 25 g a.i./ha, 151 DAT): 50% | Herbicidal effect (%) on Lamium amplexcaule, Pre-emergence application after pre-treatment (Lamium amplexcaule; 25 g a.i./ha, 151 DAT): 40% | Herbicidal effect (%) on Lamium amplexcaule, Post-emergence application without pre-treatment (Lamium amplexcaule; 50 g a.i./ha, 124 DAT): 89% | Herbicidal effect (%) on Lamium amplexcaule, Pre-emergence application after pre-treatment (Lamium amplexcaule; 50 g a.i./ha, 124 DAT): 100% | Herbicidal effect (%) on Lamium amplexcaule, Post-emergence application without pre-treatment (Lamium amplexcaule; 50 g a.i./ha, 151 DAT): 67% | Herbicidal effect (%) on Lamium amplexcaule, Pre-emergence application after pre-treatment (Lamium amplexcaule; 50 g a.i./ha, 151 DAT): 90% | Herbicidal effect (%) on Lamium amplexcaule, Post-emergence application without pre-treatment (Lamium amplexcaule; 75 g a.i./ha, 124 DAT): 83% | Herbicidal effect (%) on Lamium amplexcaule, Pre-emergence application after pre-treatment (Lamium amplexcaule; 75 g a.i./ha, 124 DAT): 100% | Herbicidal effect (%) on Lamium amplexcaule, Post-emergence application without pre-treatment (Lamium amplexcaule; 75 g a.i./ha, 151 DAT): 67% | Herbicidal effect (%) on Lamium amplexcaule, Pre-emergence application after pre-treatment (Lamium amplexcaule; 75 g a.i./ha, 151 DAT): 100% | Herbicidal effect (%) on Digitaria sanguinalis (Digitaria sanguinalis; 12.5 g a.i./ha, 35 DAT): 87% | Herbicidal effect (%) on Digitaria sanguinalis (Digitaria sanguinalis; 12.5 g a.i./ha, 56 DAT): 63% | Herbicidal effect (%) on Digitaria sanguinalis (Digitaria sanguinalis; 12.5 g a.i./ha, 68 DAT): 73% | Herbicidal effect (%) on Digitaria sanguinalis (Digitaria sanguinalis; 12.5 g a.i./ha, 107 DAT): 70% | Herbicidal effect (%) on Digitaria sanguinalis (Digitaria sanguinalis; 12.5 g a.i./ha, 138 DAT): 43% | Herbicidal effect (%) on Digitaria sanguinalis (Digitaria sanguinalis; 12.5 g a.i./ha, 180 DAT): 57% | Herbicidal effect (%) on Digitaria sanguinalis (Digitaria sanguinalis; 25.0 g a.i./ha, 35 DAT): 95% | Herbicidal effect (%) on Digitaria sanguinalis (Digitaria sanguinalis; 25.0 g a.i./ha, 56 DAT): 96% | Herbicidal effect (%) on Digitaria sanguinalis (Digitaria sanguinalis; 25.0 g a.i./ha, 68 DAT): 98% | Herbicidal effect (%) on Digitaria sanguinalis (Digitaria sanguinalis; 25.0 g a.i./ha, 107 DAT): 97% | Herbicidal effect (%) on Digitaria sanguinalis (Digitaria sanguinalis; 25.0 g a.i./ha, 138 DAT): 93% | Herbicidal effect (%) on Digitaria sanguinalis (Digitaria sanguinalis; 25.0 g a.i./ha, 180 DAT): 93% | Herbicidal effect (%) on Digitaria sanguinalis (Digitaria sanguinalis; 50.0 g a.i./ha, 35 DAT): 97% | Herbicidal effect (%) on Digitaria sanguinalis (Digitaria sanguinalis; 50.0 g a.i./ha, 56 DAT): 98% | Herbicidal effect (%) on Digitaria sanguinalis (Digitaria sanguinalis; 50.0 g a.i./ha, 68 DAT): 99% | Herbicidal effect (%) on Digitaria sanguinalis (Digitaria sanguinalis; 50.0 g a.i./ha, 107 DAT): 99% | Herbicidal effect (%) on Digitaria sanguinalis (Digitaria sanguinalis; 50.0 g a.i./ha, 138 DAT): 100% | Herbicidal effect (%) on Digitaria sanguinalis (Digitaria sanguinalis; 50.0 g a.i./ha, 180 DAT): 100% | Herbicidal effect (%) on Digitaria sanguinalis (Digitaria sanguinalis; 100.0 g a.i./ha, 35 DAT): 96% | Herbicidal effect (%) on Digitaria sanguinalis (Digitaria sanguinalis; 100.0 g a.i./ha, 56 DAT): 99% | Herbicidal effect (%) on Digitaria sanguinalis (Digitaria sanguinalis; 100.0 g a.i./ha, 68 DAT): 99% | Herbicidal effect (%) on Digitaria sanguinalis (Digitaria sanguinalis; 100.0 g a.i./ha, 107 DAT): 99% | Herbicidal effect (%) on Digitaria sanguinalis (Digitaria sanguinalis; 100.0 g a.i./ha, 138 DAT): 99% | Herbicidal effect (%) on Digitaria sanguinalis (Digitaria sanguinalis; 100.0 g a.i./ha, 180 DAT): 99% | Herbicidal effect (%) on Digitaria sanguinalis (Digitaria sanguinalis; 200.0 g a.i./ha, 35 DAT): 98% | Herbicidal effect (%) on Digitaria sanguinalis (Digitaria sanguinalis; 200.0 g a.i./ha, 56 DAT): 99% | Herbicidal effect (%) on Digitaria sanguinalis (Digitaria sanguinalis; 200.0 g a.i./ha, 68 DAT): 99% | Herbicidal effect (%) on Digitaria sanguinalis (Digitaria sanguinalis; 200.0 g a.i./ha, 107 DAT): 100% | Herbicidal effect (%) on Digitaria sanguinalis (Digitaria sanguinalis; 200.0 g a.i./ha, 138 DAT): 100% | Herbicidal effect (%) on Digitaria sanguinalis (Digitaria sanguinalis; 200.0 g a.i./ha, 180 DAT): 100% | Herbicidal effect (%) on Poa annua (Poa annua; 12.5 g a.i./ha): 70% | Herbicidal effect (%) on Poa annua (Poa annua; 25.0 g a.i./ha): 97% | Herbicidal effect (%) on Poa annua (Poa annua; 50.0 g a.i./ha): 100% | Herbicidal effect (%) on Poa annua (Poa annua; 100.0 g a.i./ha): 100% | Herbicidal effect (%) on Poa annua (Poa annua; 200.0 g a.i./ha): 100% | Herbicidal effect (%) 7 DAT on Capsella bursa pastoris (Capsella bursa pastoris): 0% | Herbicidal effect (%) 7 DAT on Taraxacum officinalis (Taraxacum officinalis): 20%
